Here are results for three molecules from patent US11261179B2, “Small molecules” (University of Dundee, priority 2017, dated 2022).

For assay [1], the target named is T1, VCB (biotinylated VCB and His-VCB) (Homo sapiens, UniProt P40337).
T1 construct: His tag (printed 'Hiss-VCB'); biotin (chemical labelling with NHS-PEG4-biotin); on the other VCB population
As to the kind of experiment: AlphaLISA proximity assay of ternary complex formation. Format: binding. The settings on record: VCB 20 nM each, 0.5 to 200 nM Homo-PROTAC. The method, then:
The VCB complex was mixed with EZ-link NHS-PEG4-biotin (Thermo Scientific) in a 1:1 molar ratio and incubated at room temperature for 1 h. The reaction was quenched using 1 M Tris-HCl, pH 7.5, and unreacted NHS-biotin was removed with a PD-10 MiniTrap desalting column (GE Healthcare) equilibrated with 20 mM HEPES, pH 7.5, 150 mM NaCl and 1 mM DTT.
All assays were performed at room temperature in 384-well plates with a final assay volume of 25 μL per well; plates were sealed with transparent film between addition of reagents. All reagents were prepared as 5× stocks diluted in 50 mM HEPES, pH 7.5, 100 mM NaCl, 0.1% (w/v) bovine serum albumin and 0.02% (w/v) 3-[(cholamidopropyl)dimethylammonio]-1-propanesulfonate (CHAPS). Biotinylated VCB (20 nM final) and Hiss-VCB (20 nM final) were incubated with a range of Homo-PROTAC concentrations (0.5 to 200 nM; three-in-five serial dilution) for 1 h. Anti-His acceptor beads (PerkinElmer, 10 μg/mL final) were added and plates were incubated for another hour. Streptavidin-coated donor beads (PerkinElmer, 10 μg/mL final) were added and plates were incubated for a final 1 h. Plates were read on a PHERAstar FS (BMG Labtech) using an optic module with an excitation wavelength of 680 nm and emission wavelength of 615 nm. Intensity values were plotted against PROTAC concentration on a logo scale.

Assay [2] has as its system HIF-1α / hydroxylated HIF-1α (Hdy-HIF-1α). As to the kind of experiment: Western blot of HIF-1α and Hdy-HIF-1α levels in HeLa cells. The assay is classed as cell-based, Human. The settings on record: HeLa, 1 μM, 10 h. The protocol: (§1) For single time point treatment experiments, cells were transferred in 6-well plates with 5×10^5 cells per well in 2 ml media in order to achieve 80% confluence the following day. Stock concentrations of compounds were prepared by solubilizing the powder in 100% v/v DMSO to the final desired stock concentration.
(§2) On the day of treatment, all compound samples were prepared as 100-fold concentrated compound solution using DMEM just before treatment. The experiment samples (20 μL) were added to the 6 well plate containing 2 ml of media. The final DMSO concentration was 0.1% v/v. Cells were incubated at 37° C. and 5% CO2 for the desired time before harvesting.
(§3) For time dependent treatment, cells were transferred in 6-well plates with 3×10^5 cells per well in 2 ml media. Samples were prepared as detailed above or the single time point experiments. Treatment was conducted at given time points prior to harvest.
(§4) Cells were lysed in lysis buffer (20 mM Tris pH 8, 150 mM NaCl, 1% Triton x100) and a protease inhibitor cocktail (Roche) per 10 ml buffer. For protein extracts, the dishes were placed on ice. The media was aspirated and the tissue layer washed twice with ice-cold phosphate buffer saline (PBS). Lysis buffer (120 μl) was added and the cells detached from the surface with a cell scraper. After removal of the insoluble fraction by centrifugation, the protein concentration of the supernatant was determined by Pierce™ Coomassie (Bradford) Protein Assay Kit. Protein extracts were fractionated by SDS-PAGE on 4-12% Tris-Acetate NuPage® Novex® (Life Technologies) polyacrylamide gels and transferred to a nitrocellulose membrane using wet transfer. The membrane was then blocked with 5% w/v Bovine serum albumin (BSA) in Tris-buffered saline (TBS) with 0.1% w/v Tween-20. For detecting proteins the following primary antibodies in the given concentrations were used: anti-β-Actin (Cell Signaling Technology, 4970S, 13E5) 1:2000, anti-VHL (Cell Signaling Technology, #68547) 1:1000, anti-Hif-1α (BD Biosciences, 610959, clone 54) 1:1000, anti-hydroxy-HIF-1α (Hyp564) (Cell Signaling Techonology; #3434) 1:1000, anti-PHD2 (Bethyl Laboratories; A300-322A) 1:1000, anti-PHD3 (Bethyl Laboratories; A300-327A) 1:1000, anti-CRBN (Proteintech; 11435-1-AP) 1:1000.
(§5) Following incubation with a horseradish peroxidase-conjugated secondary antibody (Cell Signaling Technology), the signal was developed using enhanced chemiluminescence (ECL) Western Blotting Detection Kit (Amersham) on Amersham Hyperfilm ECL film (Amersham).
(§6) Band quantification was performed using ImageJ software and reported as relative amount as ratio of the each protein band relative to the lane's loading control. The values obtained were then normalized to 0.1% DMSO vehicle control.
On the technique in general: A western blot detects proteins with antibodies after separation by electrophoresis.

A further assay addresses VCB complex (Homo sapiens, UniProt P40337). As to the kind of experiment: Size exclusion chromatography of VCB complex formation. Format: binding. As to conditions: SEC; for shift of VCB peak / ternary complex formation: VCB 50 μM, compound 30 μM. The method, then: SEC experiments were carried out in a AKTA pure system (GE Healthcare) at room temperature. The oligomeric state of the VCB complex in solution was analyzed by gel filtration in a buffer containing 20 mM Bis-Tris (pH 7), 150 mM NaCl and 1 mM 1,4-dithiothreitol (DTT) using a Superdex 200 Increase 10/300 GL column (GE Healthcare) calibrated with globular proteins of known molecular weight (GE Healthcare, 28-4038-41/42). […] Sample volume for each injection was 200 μL, and the flow rate was 0.5 mL/min. Peak elution was monitored using ultraviolet absorbance at 280 nm.
For orientation: SEC sorts molecules by how far they enter the pores of the column.

For assay [3], the target named is pVHL19 (VCB complex: VHL with Elongin B and Elongin C) (Homo sapiens, UniProt P40337). As to the kind of experiment: ITC titration against VCB, short VHL isoform. The assay is classed as binding. The settings on record: ITC; for Kd / ΔG / ΔH / α (cooperativity/avidity) / −TΔS: pVHL19; for n (stoichiometry): pVHL19, 25° C. The method, then:
(§7) Titrations were performed on an ITC200 micro-calorimeter (GE Healthcare). […] The final DMSO concentration was 0.15% v/v. VBC protein experiments were carried out in a buffer containing 20 mM Bis-tris propane, 150 mM NaCl, 1 mM TCEP, 0.15% v/v DMSO, pH 7.4. The titrations consisted of 19 injections of 2 μL compounds solution (150 μM, in the syringe) at a rate of 2 s/μL at 120 s time intervals into the VCB protein solution (20 μM, in the cell). An initial injection of compound solution (0.4 μL) was made and discarded during data analysis. All experiments were performed at 25° C., whilst stirring the syringe at 600 rpm. The data were fitted to a single binding site model to obtain the stoichiometry n, the dissociation constant Kd and the enthalpy of binding ΔH using the Microcal LLC ITC200 Origin software provided by the manufacturer.
In general terms: ITC needs no label: the signal is the heat of the interaction.

A further assay addresses T2, pVHL30 (Homo sapiens, UniProt P40337).
T2 construct: endogenous in cells; host or cells: U2OS
Kind of assay: Western blot of VHL levels in U2OS cells. Format: cell-based. As to conditions: for profile of cellular activity: 10 h, 1 nM-100 μM; for cellular efficacy at longer time points / time of treatment to complete degradation of pVHL30: time course. The protocol: as §1, §2, §3, §4, §5, §6

The target in assay [4] is T3, pVHL30 (long isoform of VHL) (Homo sapiens, UniProt P40337).
T3 construct: endogenous in cells; host or cells: HeLa
Kind of assay: Western blot of VHL levels in HeLa cells. The settings on record: for depletion/degradation of VHL (pVHL30): 1 μM, 10 h. The assay is classed as cell-based. The method, then: as §1, §2, §3
Cells were transferred in 6-well plates with 5×10^5 cells per well in 2 ml media in order to achieve 80% confluence the day after. At t=0, MLN4924 was added into the desired wells at 3 μM final concentration and 0.1% v/v of DMSO. DMSO (0.1% v/v final conc.) was added to the remaining wells in order to match identical conc. of vehicle in all wells. At t=3 h, MG 132 was added into the desired wells at 50 μM final conc. and 0.1% v/v of DMSO. DMSO (0.1% v/v final conc.) was added to the remaining wells in order to achieve the same conc. of vehicle in all the wells. […] DMSO (0.1% v/v final conc.) was added to the remaining wells in order to obtain the same conc. of vehicle in all the wells. The total final concentration of DMSO was therefore 0.3% v/v. Plates were incubated for 4 h at 37° C. and 5% CO2 before harvesting.
Cells were transferred in 6-well plates with 5×10^5 cells per well in 2 ml media in order to achieve 80% confluence the day after. […] Plates were incubated for the desired time at 37° C. and 5% CO2 before harvesting.
For this experiments, cells were transferred in 6-well plates with 5×10^5 cells per well in 2 ml media in order to achieve 80% confluence the day after. […] Plates were incubated for the desired time at 37° C. and 5% CO2 before harvesting.
as §4, §5
Band quantification was performed using ImageJ software and reported as relative amount as ratio of the each protein band relative to the lane's loading control. […]

A further assay has as its target pVHL30 (VCB complex) (Homo sapiens, UniProt P40337). Kind of assay: ITC titration against VCB, long VHL isoform. Format: binding. The method, then:
as §7

“And” between values parts separate entries of the source, which are not always exact repeats. Identical values can stand only once. “Also recorded” adds a separate entry of the source.

T3 sequence (P40337 whole entry, canonical isoform): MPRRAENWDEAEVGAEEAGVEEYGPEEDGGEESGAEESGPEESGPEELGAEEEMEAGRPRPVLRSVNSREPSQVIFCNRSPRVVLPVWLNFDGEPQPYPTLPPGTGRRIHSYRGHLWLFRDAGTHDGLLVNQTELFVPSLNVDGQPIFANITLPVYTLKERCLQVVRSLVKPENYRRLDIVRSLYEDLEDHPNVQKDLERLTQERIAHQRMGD
pVHL30 (VCB complex), sequence (P40337 whole entry, canonical isoform): as above
pVHL30 (VCB complex), sequence (Q15370 1-104 partner limits assumed): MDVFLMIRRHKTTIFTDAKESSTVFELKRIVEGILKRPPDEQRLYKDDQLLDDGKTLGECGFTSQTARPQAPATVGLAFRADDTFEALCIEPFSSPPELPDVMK
pVHL30 (VCB complex), sequence (Q15369 17-112 partner limits assumed): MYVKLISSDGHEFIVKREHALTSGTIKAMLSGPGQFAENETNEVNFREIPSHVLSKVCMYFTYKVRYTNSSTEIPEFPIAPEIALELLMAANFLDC
T2 sequence (P40337 whole entry): as the sequence (P40337 whole entry, canonical isoform) above
pVHL19 (VCB complex: VHL with Elongin B and Elongin C), sequence (P40337 54-213): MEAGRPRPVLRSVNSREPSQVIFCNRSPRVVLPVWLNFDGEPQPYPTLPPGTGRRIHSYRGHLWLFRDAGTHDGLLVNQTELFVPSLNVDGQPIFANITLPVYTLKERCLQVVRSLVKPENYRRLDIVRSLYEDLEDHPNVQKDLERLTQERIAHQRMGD
pVHL19 (VCB complex: VHL with Elongin B and Elongin C), sequence (Q15370 1-104 partner limits assumed): as the sequence (Q15370 1-104 partner limits assumed) above
pVHL19 (VCB complex: VHL with Elongin B and Elongin C), sequence (Q15369 17-112 partner limits assumed): as the sequence (Q15369 17-112 partner limits assumed) above
VCB complex, sequence (P40337 54-213 limits assumed): as the sequence (P40337 54-213) above
VCB complex, sequence (Q15370 1-104 partner limits assumed): as the sequence (Q15370 1-104 partner limits assumed) above
VCB complex, sequence (Q15369 17-112 partner limits assumed): as the sequence (Q15369 17-112 partner limits assumed) above
T1 sequence (P40337 54-213 limits assumed): as the sequence (P40337 54-213) above
T1 sequence (Q15370 1-104 partner limits assumed): as the sequence (Q15370 1-104 partner limits assumed) above
T1 sequence (Q15369 17-112 partner limits assumed): as the sequence (Q15369 17-112 partner limits assumed) above

In general, Kd refers to the concentration at which binding is half-saturated. High values mean lower affinity, low ones higher affinity. `Cc1ncsc1-c1ccc(CNC(=O)[C@@H]2C[C@@H](O)CN2C(=O)[C@@H](NC(=O)COCCOCCOCCOCC(=O)N[C@H](C(=O)N2C[C@H](O)C[C@H]2C(=O)NCc2ccc(-c3scnc3C)cc2)C(C)(C)C)C(C)(C)C)cc1` [CM09, N^1,N^14-bis((S)-1-((2S,4R)-4-hydroxy-2-((4-(4-methylthiazol-5-yl)benzyl)carbamoyl)pyrrolidin-1-yl)-3,3-dimethyl-1-oxobutan-2-yl)-3,6,9,12-tetraoxatetradecanediamide]: in assay [1], the “AlphaLISA intensity signal / complex formation” value is given as “negligible levels of complex formation”. The HIF-1α level result in assay [2] was “slight increase”. The “shift of VCB peak / ternary complex formation” value at VCB complex is “formation of a ternary complex eluting at identical retention volume”. In assay [3], binding was put at a Kd of 41 ± 15 nM, the ΔG was -10.3 ± 0.2 kcal/mol, the ΔH was -6.9 ± 0.3 kcal/mol and the “α (cooperativity/avidity)” value turned out to be 4. In addition, in assay [3], the “−TΔS” value is -3.5 ± 0.5 kcal/mol and the “n (stoichiometry)” value was found to be 0.98 ± 0.09. Besides, at pVHL30, the “profile of cellular activity” value is listed as “consistent profile of cellular activity”, the “cellular efficacy at longer time points” value is given as “lost its cellular efficacy after 36 h” and the “time of treatment to complete degradation of pVHL30” value is given as 2 h. In assay [4] (time course, also longer time points), the “degradation of pVHL over time” value is “Incomplete degradation”.
On to `Cc1ncsc1-c1ccc(CNC(=O)[C@@H]2C[C@@H](O)CN2C(=O)[C@@H](NC(=O)COCCOCCOCCOCCOCC(=O)N[C@H](C(=O)N2C[C@H](O)C[C@H]2C(=O)NCc2ccc(-c3scnc3C)cc2)C(C)(C)C)C(C)(C)C)cc1` [CM10, N^1,N^17-bis((S)-1-((2S,4R)-4-hydroxy-2-((4-(4-methylthiazol-5-yl)benzyl)carbamoyl)pyrrolidin-1-yl)-3,3-dimethyl-1-oxobutan-2-yl)-3,6,9,12,15-pentaoxaheptadecanediamide], for which, in assay [1], the “AlphaLISA intensity signal / complex formation” value is given as “negligible levels of complex formation”. In assay [2], the HIF-1α level result was “slight increase” and the “protein levels of Hdy-HIF-1α” value is reported as “detectable albeit low increase”. Also, on VCB complex, the “shift of VCB peak / ternary complex formation” value is “formation of a ternary complex eluting at identical retention volume”. In addition, in assay [3], the Kd worked out at 32 ± 5 nM, the ΔG was -10.2 ± 0.1 kcal/mol, the ΔH was -9.4 ± 0.1 kcal/mol and the “α (cooperativity/avidity)” value is given as 6. Besides, in assay [3], the “−TΔS” value was -0.8 ± 0.2 kcal/mol; the “n (stoichiometry)” value was 0.7 and 0.73 ± 0.01. At pVHL30, the “profile of cellular activity” value is reported as “consistent profile of cellular activity”, the “cellular efficacy at longer time points” value is “retained their efficacy” and the “time of treatment to complete degradation of pVHL30” value is 2 h. Moreover, the “depletion/degradation of VHL (pVHL30)” value in assay [4] was “total knockdown; also recorded: complete depletion”.
For the molecule `Cc1ncsc1-c1ccc(CNC(=O)[C@H]2C[C@@H](O)CN2C(=O)[C@H](NC(=O)COCCOCCOCCOCCOCC(=O)N[C@H](C(=O)N2C[C@H](O)C[C@H]2C(=O)NCc2ccc(-c3scnc3C)cc2)C(C)(C)C)C(C)(C)C)cc1` [CMP99, N^1—((R)-1-((2R,4R)-4-hydroxy-2-((4-(4-methylthiazol-5-yl)benzyl)carbamoyl)pyrrolidin-1-yl)-3,3-dimethyl-1-oxobutan-2-yl)-N^17—((S)-1-((2S,4R)-4-hydroxy-2-((4-(4-methylthiazol-5-yl)benzyl)carbamoyl)pyrrolidin-1-yl)-3,3-dimethyl-1-oxobutan-2-yl)-3,6,9,12,15-pentaoxaheptadecanediamide], on VCB complex, the “elution volume of small peak” value is 13.5 mL and the “shift of VCB peak / ternary complex formation” value is “no shift”. For the same molecule, at pVHL30 (VCB complex), the equilibrium dissociation constant (Kd) came out at 106 ± 10 nM, the “n (stoichiometry)” value is reported as 1.050 ± 0.004, the ΔG was -9.51 ± 0.05 kcal/mol and the ΔH was -5.19 ± 0.03 kcal/mol. In addition, the “−TΔS” value at pVHL30 (VCB complex) was -4.3 ± 0.1 kcal/mol. In assay [3], binding was characterised by a dissociation constant (Kd) of 146 ± 2 nM, the ΔG was -9.33 ± 0.06 kcal/mol, the ΔH was -6.23 ± 0.05 kcal/mol and the “−TΔS” value is -3.1 ± 0.7 kcal/mol. Besides, the “n (stoichiometry)” value in assay [3] is recorded as 0.964 ± 0.005. Besides, in assay [4], the “depletion/degradation of VHL (pVHL30)” value is listed as “unable to induce degradation of VHL”.
